Results reported in PMC5664067, “Investigating the Interaction of Cyclic RGD Peptidomimetics with αVβ6 Integrin by Biochemical and Molecular Docking Studies” (Cancers, 2017).
Like-named read-outs stand apart in the source and are kept apart here.

Columns and labels:
integrin αVβ6 = tested on: integrin αVβ6; set-up: method as in PMID 28074920; conditions: immobilized LAP and soluble integrin; cited from earlier work
[1] = molecular target: T1, Recombinant human integrin αVβ6 receptor (Homo sapiens, UniProt P06756+P18564); assay: Competitive solid-phase binding assay: inhibition of biotinylated fibronectin binding to isolated αVβ6 integrin; conditions: for αVβ6 IC50: 50% inhibition of biotinylated fibronectin (1 μg/mL) binding to isolated αVβ6, mean ± SD of triplicate determinations; for IC50 (αVβ6)/IC50 (αVβ3): selectivity ratio
T1 construct: purchased R&D Systems
Procedure: The assay was performed according to previously reported procedures with slight modifications.
Recombinant human integrin αVβ6 receptor (R&D Systems, Minneapolis, MN, USA) was diluted to 1.0 μg/mL in coating buffer containing 20 mM Tris-HCl (pH 7.4), 150 mM NaCl, 1 mM MnCl2, 2 mM CaCl2, and 1 mM MgCl2. An aliquot of diluted receptor (100 μL/well) was added to 96-well microtiter plates (Nunc MaxiSorp, Thermo Fisher Scientific, Roskilde, Denmark) and incubated overnight at 4 °C. The plates were incubated with blocking solution (coating buffer plus 1% bovine serum albumin) for additional 2 h at room temperature to block nonspecific binding. After washing twice with blocking solution, plates were incubated shaking in the dark for 3 h at room temperature, with various concentrations (10^−4–10^−11 M) of test compounds in the presence of 1 μg/mL biotinylated fibronectin (Molecular Innovations, Novi, MI, USA). Biotinylation was performed using an EZ-Link Sulfo-NHS-Biotinylation kit (Pierce, Rockford, IL, USA). After washing three times, the plates were incubated shaking for 1 h, at room temperature, with streptavidin-biotinylated peroxidase complex (Amersham Biosciences, Uppsala, Sweden). After washing 3 times with blocking solution, plates were incubated with 100 μL/well of Substrate Reagent Solution (R&D Systems) for 30 min shaking in the dark, before stopping the reaction with the addition of 50 μL/well 2N H2SO4. Absorbance at 415 nm was read in a SynergyTM HT Multi-Detection Microplate Reader (BioTek Instruments, Inc., Winooski, VT, USA). Each data point represents the average of triplicate wells; data analysis was carried out by nonlinear regression analysis with GraphPad Prism software (GraphPad Software, Inc., La Jolla, CA, USA). Each experiment was repeated in triplicate.

αVβ3 integrin [2] = molecular target: T2, αVβ3 integrin (Homo sapiens, UniProt P05106+P06756); set-up: method as in PMID 22517378; conditions: 50% inhibition of biotinylated vitronectin binding to αVβ3; cited from earlier work
αVβ3 integrin [3] = molecular target: T2, αVβ3 integrin; assay: Inhibition of biotinylated vitronectin binding to isolated αVβ3 integrin; conditions: 50% inhibition of biotinylated vitronectin binding to isolated αVβ3; new RAD peptidomimetic tested for this paper
human endothelial cells = tested on: human endothelial cells; set-up: method as in PMID 25053992; conditions: cited from earlier work
human glioblastoma cells = tested on: human glioblastoma cells; set-up: method as in PMID 25761230; conditions: cited from earlier work
[4] = tested on: FAK/Akt integrin-activated transduction signaling pathway; set-up: method as in PMID 25761230; conditions: human glioblastoma cells; cited from earlier work
different cancer cells = tested on: different cancer cells; set-up: method as in PMID 25053992; conditions: cited from earlier work

T2 sequence (P06756 31-889 limits assumed): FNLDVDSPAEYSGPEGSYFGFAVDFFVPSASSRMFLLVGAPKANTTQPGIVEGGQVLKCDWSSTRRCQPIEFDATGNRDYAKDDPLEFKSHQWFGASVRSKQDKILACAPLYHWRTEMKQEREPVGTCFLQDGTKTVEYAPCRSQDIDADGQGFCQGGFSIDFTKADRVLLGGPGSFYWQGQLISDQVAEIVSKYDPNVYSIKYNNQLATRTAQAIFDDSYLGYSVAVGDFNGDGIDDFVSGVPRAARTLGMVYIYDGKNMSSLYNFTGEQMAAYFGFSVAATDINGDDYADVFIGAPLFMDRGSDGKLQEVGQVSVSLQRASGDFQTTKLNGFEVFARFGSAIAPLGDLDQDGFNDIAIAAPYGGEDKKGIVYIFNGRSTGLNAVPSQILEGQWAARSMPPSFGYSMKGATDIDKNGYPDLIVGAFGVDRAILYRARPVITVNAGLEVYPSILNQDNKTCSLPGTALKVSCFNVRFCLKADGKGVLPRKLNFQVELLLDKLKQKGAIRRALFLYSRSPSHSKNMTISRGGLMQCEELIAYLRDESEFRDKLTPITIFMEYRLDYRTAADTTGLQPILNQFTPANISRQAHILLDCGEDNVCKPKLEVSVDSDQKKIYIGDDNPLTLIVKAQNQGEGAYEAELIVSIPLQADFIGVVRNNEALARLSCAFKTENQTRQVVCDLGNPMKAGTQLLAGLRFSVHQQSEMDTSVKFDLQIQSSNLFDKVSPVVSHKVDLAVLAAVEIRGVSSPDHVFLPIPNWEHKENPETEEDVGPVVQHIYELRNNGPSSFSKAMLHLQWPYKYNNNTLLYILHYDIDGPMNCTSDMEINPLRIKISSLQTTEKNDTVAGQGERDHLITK
T2 sequence (P06756 891-1048 partner limits assumed): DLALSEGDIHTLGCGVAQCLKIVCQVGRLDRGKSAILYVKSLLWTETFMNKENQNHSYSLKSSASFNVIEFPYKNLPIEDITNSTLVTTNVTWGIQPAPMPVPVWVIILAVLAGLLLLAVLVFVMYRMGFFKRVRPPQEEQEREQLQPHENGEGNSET
T2 sequence (P05106 27-788): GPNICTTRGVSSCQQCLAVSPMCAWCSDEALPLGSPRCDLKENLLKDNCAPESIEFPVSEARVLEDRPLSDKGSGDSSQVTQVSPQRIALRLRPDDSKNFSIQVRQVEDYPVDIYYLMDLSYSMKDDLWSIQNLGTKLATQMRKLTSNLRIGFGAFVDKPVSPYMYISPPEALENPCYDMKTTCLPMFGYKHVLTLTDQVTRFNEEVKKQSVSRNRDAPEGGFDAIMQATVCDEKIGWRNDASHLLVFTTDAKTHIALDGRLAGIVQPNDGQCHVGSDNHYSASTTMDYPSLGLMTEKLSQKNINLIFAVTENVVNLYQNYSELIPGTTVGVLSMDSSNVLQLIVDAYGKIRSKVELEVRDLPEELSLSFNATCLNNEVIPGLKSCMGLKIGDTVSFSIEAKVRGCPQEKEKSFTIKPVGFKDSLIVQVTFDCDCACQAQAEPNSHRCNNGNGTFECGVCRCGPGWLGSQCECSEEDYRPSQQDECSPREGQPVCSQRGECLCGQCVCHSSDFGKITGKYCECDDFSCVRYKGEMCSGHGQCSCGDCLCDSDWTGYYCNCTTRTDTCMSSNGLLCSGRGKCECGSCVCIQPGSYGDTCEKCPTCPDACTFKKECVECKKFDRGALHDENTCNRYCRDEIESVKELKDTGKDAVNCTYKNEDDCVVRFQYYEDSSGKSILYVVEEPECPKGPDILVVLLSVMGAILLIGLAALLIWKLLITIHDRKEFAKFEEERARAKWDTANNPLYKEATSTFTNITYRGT
T1 sequence (P06756 31-889 limits assumed): as the sequence (P06756 31-889 limits assumed) above
T1 sequence (P06756 891-992 partner limits assumed): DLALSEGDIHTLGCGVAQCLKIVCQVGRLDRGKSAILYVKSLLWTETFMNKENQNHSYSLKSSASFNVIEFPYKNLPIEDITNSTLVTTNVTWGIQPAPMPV
T1 sequence (P18564 22-707 limits assumed): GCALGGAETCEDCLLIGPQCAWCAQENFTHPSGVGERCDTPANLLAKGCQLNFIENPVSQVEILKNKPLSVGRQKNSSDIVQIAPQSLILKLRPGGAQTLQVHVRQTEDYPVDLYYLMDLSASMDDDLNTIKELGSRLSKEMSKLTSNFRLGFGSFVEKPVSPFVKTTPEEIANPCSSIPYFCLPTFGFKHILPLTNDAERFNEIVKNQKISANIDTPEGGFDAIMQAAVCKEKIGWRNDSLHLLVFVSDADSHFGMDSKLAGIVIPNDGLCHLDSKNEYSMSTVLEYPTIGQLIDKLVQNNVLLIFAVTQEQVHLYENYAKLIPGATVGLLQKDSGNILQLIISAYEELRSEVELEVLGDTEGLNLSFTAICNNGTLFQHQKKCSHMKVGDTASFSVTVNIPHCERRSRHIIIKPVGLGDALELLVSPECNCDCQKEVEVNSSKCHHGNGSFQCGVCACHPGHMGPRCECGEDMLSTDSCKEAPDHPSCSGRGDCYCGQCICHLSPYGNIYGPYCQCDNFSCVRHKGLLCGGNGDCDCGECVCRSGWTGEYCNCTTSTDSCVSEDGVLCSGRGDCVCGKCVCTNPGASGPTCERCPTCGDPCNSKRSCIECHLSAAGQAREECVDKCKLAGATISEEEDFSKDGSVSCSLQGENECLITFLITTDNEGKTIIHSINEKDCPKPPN

SMILES | IC50 [1] [nM] | IC50 (αVβ6)/IC50 (αVβ3) [1] | further results
CC(C)[C@H]1C(=O)N[C@@H](CCCNC(=N)N)C(=O)NCC(=O)N[C@@H](CC(=O)O)C(=O)N[C@H](Cc2ccccc2)C(=O)N1C [Compound 1a, cyclo[RGDf(N-Me)V]] | – | – | αVβ6 IC50 (integrin αVβ6): micromolar
N=C(N)NCCC[C@@H]1NC(=O)C[C@H]2C(=O)N(Cc3ccccc3)[C@H](CNC(=O)[C@H](CC(=O)O)NC(=O)CNC1=O)C(=O)N2Cc1ccccc1 [Compound 5] | 173 ± 52.5 | – | IC50 (αVβ3 integrin [2]): 12.6 ± 5 nM
N=C(N)NCCC[C@@H]1NC(=O)C[C@H]2NC(=O)[C@H](CNC(=O)[C@H](CC(=O)O)NC(=O)CNC1=O)N(Cc1ccccc1)C2=O [Compound 3] | 95.6 ± 24.6 | 21 | inhibition of angiogenesis induced by pro-angiogenic growth factors (human endothelial cells): significantly inhibit; effects on integrin-mediated cell infiltration processes (human glioblastoma cells): inhibitory effects; effects on the FAK/Akt integrin-activated transduction signaling pathway [4]: inhibitory effects; inhibition of cell adhesion (different cancer cells): significantly inhibit

Continued, in another order:

IC50 [1] [nM] | IC50 (αVβ6)/IC50 (αVβ3) [1] | SMILES | further results
– | 3 | CC1NC(=O)[C@H](CCCNC(=N)N)NC(=O)C[C@H]2NC(=O)[C@H](CNC(=O)[C@H](CC(=O)O)NC1=O)N(Cc1ccccc1)C2=O (some centres unmarked) [Compound 8, Cyclo[DKP-3-RAD]] | αVβ3 IC50 (αVβ3 integrin [3]): micromolar; αVβ6 IC50 [1]: micromolar
2.3 ± 0.8 | – | N=C(N)NCCC[C@@H]1NC(=O)C[C@@H]2C(=O)N(Cc3ccccc3)[C@@H](CNC(=O)[C@H](CC(=O)O)NC(=O)CNC1=O)C(=O)N2Cc1ccccc1 [Compound 7] | αVβ6 IC50 [1]: low nanomolar; αVβ3 IC50 (αVβ3 integrin [2]): subnanomolar
345 ± 1 | 108 | N=C(N)NCCC[C@@H]1NC(=O)C[C@@H]2NC(=O)[C@@H](CNC(=O)[C@H](CC(=O)O)NC(=O)CNC1=O)N(Cc1ccccc1)C2=O [Compound 2] | –
95.3 ± 4.9 | – | N=C(N)NCCC[C@@H]1NC(=O)C[C@H]2C(=O)N[C@H](CNC(=O)[C@H](CC(=O)O)NC(=O)CNC1=O)C(=O)N2Cc1ccccc1 [Compound 4] | –
76.6 ± 4.2 | 37 | N=C(N)NCCC[C@@H]1NC(=O)C[C@@H]2C(=O)N[C@@H](CNC(=O)[C@H](CC(=O)O)NC(=O)CNC1=O)C(=O)N2Cc1ccccc1 [Compound 6] | –
